Where “and” joins values, the source holds several entries; their conditions need not be identical. Identical values can stand only once.
Key:
[1] = biological target: hCA IX (Homo sapiens, UniProt Q16790); experiment: CA inhibitory activity, spectrophotometric p-NPA assay; format: biochemical; conditions: p-NPA substrate, pH 7.5, 25 °C, triplicate; read-out: IC50 (µM) ± SD hCA IX
[2] = tested on: SW-620; experiment: NCI-60 one-dose SRB screen (Colon Cancer); format: cell-based; conditions: Homo sapiens, single dose 10 µM, 48 h, read-out: Growth inhibition percent (GI %)
[3] = tested on: HCT-15; experiment: NCI-60 one-dose SRB screen (Colon Cancer); format: cell-based; conditions: Homo sapiens, single dose 10 µM, 48 h, read-out: Growth inhibition percent (GI %)
[4] = tested on: KM12; experiment: NCI-60 one-dose SRB screen (Colon Cancer); format: cell-based; conditions: Homo sapiens, single dose 10 µM, 48 h, read-out: Growth inhibition percent (GI %)
[5] = tested on: HCC-2998; experiment: NCI-60 one-dose SRB screen (Colon Cancer); format: cell-based; conditions: Homo sapiens, single dose 10 µM, 48 h, read-out: Growth inhibition percent (GI %)
[6] = tested on: COLO 205; experiment: NCI-60 one-dose SRB screen (Colon Cancer); format: cell-based; conditions: Homo sapiens, single dose 10 µM, 48 h, read-out: Growth inhibition percent (GI %)
[7] = tested on: HCT-116; experiment: NCI-60 one-dose SRB screen (Colon Cancer); format: cell-based; conditions: Homo sapiens, single dose 10 µM, 48 h, read-out: Growth inhibition percent (GI %)
[8] = tested on: MALME-3M; experiment: NCI-60 one-dose SRB screen (Melanoma); format: cell-based; conditions: Homo sapiens, single dose 10 µM, 48 h, read-out: Growth inhibition percent (GI %)
[9] = tested on: UACC-62; experiment: NCI-60 one-dose SRB screen (Melanoma); format: cell-based; conditions: Homo sapiens, single dose 10 µM, 48 h, read-out: Growth inhibition percent (GI %)
[10] = tested on: UACC-257; experiment: NCI-60 one-dose SRB screen (Melanoma); format: cell-based; conditions: Homo sapiens, single dose 10 µM, 48 h, read-out: Growth inhibition percent (GI %)
[11] = tested on: SK-MEL-28; experiment: NCI-60 one-dose SRB screen (Melanoma); format: cell-based; conditions: Homo sapiens, single dose 10 µM, 48 h, read-out: Growth inhibition percent (GI %)
[12] = tested on: M14; experiment: NCI-60 one-dose SRB screen (Melanoma); format: cell-based; conditions: Homo sapiens, single dose 10 µM, 48 h, read-out: Growth inhibition percent (GI %)
[13] = tested on: SK-MEL-5; experiment: NCI-60 one-dose SRB screen (Melanoma); format: cell-based; conditions: Homo sapiens, single dose 10 µM, 48 h, read-out: Growth inhibition percent (GI %)
[14] = tested on: MDA-MB-435; experiment: NCI-60 one-dose SRB screen (Melanoma); format: cell-based; conditions: Homo sapiens, single dose 10 µM, 48 h, read-out: Growth inhibition percent (GI %)
[15] = tested on: SK-MEL-2; experiment: NCI-60 one-dose SRB screen (Melanoma); format: cell-based; conditions: Homo sapiens, single dose 10 µM, 48 h, read-out: Growth inhibition percent (GI %)
[16] = tested on: LOX IMVI; experiment: NCI-60 one-dose SRB screen (Melanoma); format: cell-based; conditions: Homo sapiens, single dose 10 µM, 48 h, read-out: Growth inhibition percent (GI %)
[17] = tested on: U251; experiment: NCI-60 one-dose SRB screen (CNS Cancer); format: cell-based; conditions: Homo sapiens, U-251, single dose 10 µM, 48 h, read-out: Growth inhibition percent (GI %)
[18] = tested on: SNB-19; experiment: NCI-60 one-dose SRB screen (CNS Cancer); format: cell-based; conditions: Homo sapiens, single dose 10 µM, 48 h, read-out: Growth inhibition percent (GI %)
[19] = tested on: SNB-75; experiment: NCI-60 one-dose SRB screen (CNS Cancer); format: cell-based; conditions: Homo sapiens, single dose 10 µM, 48 h, read-out: Growth inhibition percent (GI %)
[20] = tested on: SF-295; experiment: NCI-60 one-dose SRB screen (CNS Cancer); format: cell-based; conditions: Homo sapiens, single dose 10 µM, 48 h, read-out: Growth inhibition percent (GI %)
[21] = tested on: SF-268; experiment: NCI-60 one-dose SRB screen (CNS Cancer); format: cell-based; conditions: Homo sapiens, single dose 10 µM, 48 h, read-out: Growth inhibition percent (GI %)
[22] = tested on: SF-539; experiment: NCI-60 one-dose SRB screen (CNS Cancer); format: cell-based; conditions: Homo sapiens, single dose 10 µM, 48 h, read-out: Growth inhibition percent (GI %)
[23] = tested on: HOP-92; experiment: NCI-60 one-dose SRB screen (Non-Small Cell Lung Cancer); format: cell-based; conditions: Homo sapiens, single dose 10 µM, 48 h, read-out: Growth inhibition percent (GI %)
[24] = tested on: NCI-H23; experiment: as above; format: cell-based; conditions: Homo sapiens, single dose 10 µM, 48 h, read-out: Growth inhibition percent (GI %)
[25] = tested on: NCI-H460; experiment: as above; format: cell-based; conditions: Homo sapiens, single dose 10 µM, 48 h, read-out: Growth inhibition percent (GI %)
[26] = tested on: NCI-H322M; experiment: as above; format: cell-based; conditions: Homo sapiens, single dose 10 µM, 48 h, read-out: Growth inhibition percent (GI %)
[27] = tested on: NCI-H522; experiment: as above; format: cell-based; conditions: Homo sapiens, single dose 10 µM, 48 h, read-out: Growth inhibition percent (GI %)
[28] = tested on: EKVX; experiment: as above; format: cell-based; conditions: Homo sapiens, single dose 10 µM, 48 h, read-out: Growth inhibition percent (GI %)
[29] = tested on: HOP-62; experiment: as above; format: cell-based; conditions: Homo sapiens, single dose 10 µM, 48 h, read-out: Growth inhibition percent (GI %)
[30] = tested on: NCI-H226; experiment: as above; format: cell-based; conditions: Homo sapiens, single dose 10 µM, 48 h, read-out: Growth inhibition percent (GI %)
[31] = tested on: A549/ATCC; experiment: as above; format: cell-based; conditions: Homo sapiens, single dose 10 µM, 48 h, read-out: Growth inhibition percent (GI %)
[32] = tested on: CCRF-CEM; experiment: NCI-60 one-dose SRB screen (Leukemia); format: cell-based; conditions: Homo sapiens, single dose 10 µM, 48 h, read-out: Growth inhibition percent (GI %)
[33] = tested on: MCF-7; experiment: NCI-60 one-dose SRB screen (Breast Cancer); format: cell-based; conditions: Homo sapiens, MCF7, single dose 10 µM, 48 h, read-out: Growth inhibition percent (GI %)
[34] = tested on: MDA-MB-468; experiment: NCI-60 one-dose SRB screen (Breast Cancer); format: cell-based; conditions: Homo sapiens, single dose 10 µM, 48 h, read-out: Growth inhibition percent (GI %)
[35] = tested on: T-47D; experiment: NCI-60 one-dose SRB screen (Breast Cancer); format: cell-based; conditions: Homo sapiens, T47D, single dose 10 µM, 48 h, read-out: Growth inhibition percent (GI %)
[36] = tested on: HS 578T; experiment: NCI-60 one-dose SRB screen (Breast Cancer); format: cell-based; conditions: Homo sapiens, single dose 10 µM, 48 h, read-out: Growth inhibition percent (GI %)
[37] = tested on: MDA-MB-231/ATCC; experiment: NCI-60 one-dose SRB screen (Breast Cancer); format: cell-based; conditions: Homo sapiens, single dose 10 µM, 48 h, read-out: Growth inhibition percent (GI %)
[38] = tested on: BT-549; experiment: NCI-60 one-dose SRB screen (Breast Cancer); format: cell-based; conditions: Homo sapiens, single dose 10 µM, 48 h, read-out: Growth inhibition percent (GI %)
[39] = tested on: CAKI-1; experiment: NCI-60 one-dose SRB screen (Renal Cancer); format: cell-based; conditions: Homo sapiens, single dose 10 µM, 48 h, read-out: Growth inhibition percent (GI %)
[40] = tested on: RXF 393; experiment: NCI-60 one-dose SRB screen (Renal Cancer); format: cell-based; conditions: Homo sapiens, single dose 10 µM, 48 h, read-out: Growth inhibition percent (GI %)
[41] = tested on: A498; experiment: NCI-60 one-dose SRB screen (Renal Cancer); format: cell-based; conditions: Homo sapiens, single dose 10 µM, 48 h, read-out: Growth inhibition percent (GI %)
[42] = tested on: ACHN; experiment: NCI-60 one-dose SRB screen (Renal Cancer); format: cell-based; conditions: Homo sapiens, single dose 10 µM, 48 h, read-out: Growth inhibition percent (GI %)
[43] = tested on: TK-10; experiment: NCI-60 one-dose SRB screen (Renal Cancer); format: cell-based; conditions: Homo sapiens, single dose 10 µM, 48 h, read-out: Growth inhibition percent (GI %)
[44] = tested on: UO-31; experiment: NCI-60 one-dose SRB screen (Renal Cancer); format: cell-based; conditions: Homo sapiens, single dose 10 µM, 48 h, read-out: Growth inhibition percent (GI %)
[45] = tested on: SN12C; experiment: NCI-60 one-dose SRB screen (Renal Cancer); format: cell-based; conditions: Homo sapiens, single dose 10 µM, 48 h, read-out: Growth inhibition percent (GI %)
[46] = tested on: HT29; experiment: NCI-60 one-dose SRB screen (Colon Cancer); format: cell-based; conditions: Homo sapiens, HT-29, single dose 10 µM, 48 h, read-out: Growth inhibition percent (GI %)
[47] = tested on: 786-0; experiment: NCI-60 one-dose SRB screen (Renal Cancer); format: cell-based; conditions: Homo sapiens, single dose 10 µM, 48 h, read-out: Growth inhibition percent (GI %)

SMILES: Cc1ccc(-c2nn(-c3ccc(S(N)(=O)=O)cc3)cc2-c2nnc(N)s2)cc1 [Compound 10, 4-[4-(5-Amino-1,3,4-thiadiazol-2-yl)-3-(p-tolyl)-1H-pyrazol-1-yl] benzenesulfonamide]
- IC50 [1]: 0.66 µM and 0.663 µM
- inhibition at 10 µM [2]: < 5%
- inhibition at 10 µM [3]: < 5%
- inhibition at 10 µM [4]: < 5%
- inhibition at 10 µM [5]: < 5%
- inhibition at 10 µM [6]: < 5%
- inhibition at 10 µM [7]: < 5%
- inhibition at 10 µM [8]: < 5%
- inhibition at 10 µM [9]: < 5%
- inhibition at 10 µM [10]: 5.16%
- inhibition at 10 µM [11]: < 5%
- inhibition at 10 µM [12]: < 5%
- inhibition at 10 µM [13]: 18.5%
- inhibition at 10 µM [14]: < 5%
- inhibition at 10 µM [15]: < 5%
- inhibition at 10 µM [16]: 11.8%
- inhibition at 10 µM [17]: 9.42%
- inhibition at 10 µM [18]: 7.72%
- inhibition at 10 µM [19]: 19.5%
- inhibition at 10 µM [20]: < 5%
- inhibition at 10 µM [21]: < 5%
- inhibition at 10 µM [22]: 15.6%
- inhibition at 10 µM [23]: 30.8%
- inhibition at 10 µM [24]: 10.4%
- inhibition at 10 µM [25]: < 5%
- inhibition at 10 µM [26]: < 5%
- inhibition at 10 µM [27]: 15.3%
- inhibition at 10 µM [28]: 10.5%
- inhibition at 10 µM [29]: < 5%
- inhibition at 10 µM [30]: 5.79%
- inhibition at 10 µM [31]: < 5%
- inhibition at 10 µM [32]: 10.2%
- inhibition at 10 µM [33]: 15.8%
- inhibition at 10 µM [34]: 5.43%
- inhibition at 10 µM [35]: 13.2%
- inhibition at 10 µM [36]: 5.02%
- inhibition at 10 µM [37]: < 5%
- inhibition at 10 µM [38]: 11.2%
- inhibition at 10 µM [39]: 12.1%
- inhibition at 10 µM [40]: 9.9%
- inhibition at 10 µM [41]: 15.5%
- inhibition at 10 µM [42]: < 5%
- inhibition at 10 µM [43]: 15.4%
- inhibition at 10 µM [44]: 7.96%
- inhibition at 10 µM [45]: < 5%

SMILES: NS(=O)(=O)c1ccc(NC(=O)COC(=O)c2cn(-c3ccc(S(N)(=O)=O)cc3)nc2-c2ccc(Br)cc2)cc1 [Compound 4d, 2-Oxo-2-[(4-sulfamoylphenyl)amino] ethyl 3-(4-bromophenyl)-1-(4-sulfamoylphenyl)-1H-pyrazole-4-carboxylate]
- IC50 [1]: 0.5 µM and 0.509 µM
- inhibition at 10 µM [46]: < 5%
- inhibition at 10 µM [2]: < 5%
- inhibition at 10 µM [3]: 10.6%
- inhibition at 10 µM [4]: < 5%
- inhibition at 10 µM [5]: < 5%
- inhibition at 10 µM [6]: 8.46%
- inhibition at 10 µM [7]: 84.6%
- inhibition at 10 µM [8]: < 5%
- inhibition at 10 µM [9]: 11.9%
- inhibition at 10 µM [10]: < 5%
- inhibition at 10 µM [11]: < 5%
- inhibition at 10 µM [12]: 79.6%
- inhibition at 10 µM [13]: 14.3%
- inhibition at 10 µM [14]: 60.1%
- inhibition at 10 µM [16]: 47.7%
- inhibition at 10 µM [17]: 25%
- inhibition at 10 µM [18]: 24.1%
- inhibition at 10 µM [19]: 64.3%
- inhibition at 10 µM [20]: < 5%
- inhibition at 10 µM [21]: 34.8%
- inhibition at 10 µM [22]: 26.7%
- inhibition at 10 µM [23]: 49.6%
- inhibition at 10 µM [24]: < 5%
- inhibition at 10 µM [25]: < 5%
- inhibition at 10 µM [26]: 21.5%
- inhibition at 10 µM [27]: 19.8%
- inhibition at 10 µM [28]: 21%
- inhibition at 10 µM [29]: < 5%
- inhibition at 10 µM [30]: < 5%
- inhibition at 10 µM [31]: < 5%
- inhibition at 10 µM [32]: 60.2%
- inhibition at 10 µM [33]: 56.4%
- inhibition at 10 µM [34]: 66.5%
- inhibition at 10 µM [35]: 52.3%
- inhibition at 10 µM [36]: 36.9%
- inhibition at 10 µM [37]: 33.9%
- inhibition at 10 µM [38]: 79.9%
- inhibition at 10 µM [39]: 63.5%
- inhibition at 10 µM [47]: 86.5%
- inhibition at 10 µM [40]: < 5%
- inhibition at 10 µM [41]: 16.8%
- inhibition at 10 µM [42]: < 5%
- inhibition at 10 µM [43]: < 5%
- inhibition at 10 µM [44]: 23.2%
- inhibition at 10 µM [45]: 11.8%
